Data on 2 compounds can be found in US20230060873A1, “COMPOUNDS AND METHODS FOR FORMING ION CHANNELS IN BIOLOGICAL MEMBRANES” (Washington University, priority 2021, published 2023).

Experiment [1] is described as follows: Single-channel patch clamp recordings, inside-out, on giant multilamellar vesicles. The format is biochemical. The settings on record: 10 μM; for single channel conductance with different ions: Na+ and NMDG+ compared with K+; for single channel activity with different ions: NaCl or NMDG-Cl; for NPO / Translocation rate: 100 mV. The procedure:
The liposome preparation was based on protocols employed by Jiang et al., Activation of the archaeal ion channel MthK is exquisitely regulated by temperature, Elife 2020, 9, to reconstitute bacterial ion channels in proteoliposomes (giant multilamellar vesicles; GMLV). The method is adapted to produce plain liposomes. A total of 25 mg of asolectin from soybean (Avanti) was dissolved in 1 mL of chloroform, dried under argon, and kept overnight under vacuum. The dried lipids were resuspended using bath sonication in a resuspension solution (250 mM KCl, 30 mM HEPES, 0.1 mM CaCl2, pH adjusted at 7.6 with KOH) to a final concentration of 15 mg/mL and stored in 30 μL aliquots at −80° C. Aliquots were thawed and placed on a clean glass slide and dried in a desiccator under vacuum at room temperature. The lipids were then rehydrated with 50 μL resuspension solution for more than 2 h to yield the GMLVs.
Direct detection of electrophysiological activity in biological membranes is the gold standard for any putative ion channel. The 6-O-10 and 6-A-10 compounds were tested for ion channel activity by using the patch clamp technique in the inside-out configuration on giant multilamellar vesicles (GMLV) of asolectin.
Single-channel recordings were obtained by patch-clamping GMLV. After seal formation, patches were excised to obtain the inside-out configuration, and then the pipette solution and the bath solution were assumed to be “external” and “internal” solutions, respectively. Pipettes of borosilicate capillary glass 2-000-100 (Drummond Scientific Company) were pulled in a horizontal pipette puller P-97 (Sutter Instrument). Pipette resistance was 5-10 MΩ in any of the solutions tested. Data were acquired with an Axopatch 200A (Axon Instruments) amplifier. Current signals were sampled with a 16-bit A/D converter Axon Digi-data 1550B (Axon Instruments) at a sampling rate of 100 kHz and low-pass filtered at 10 kHz. Data was acquired using Clampex 10.7 (Molecular Devices) acquisition software and analysed with Clampfit 10.7 software (Axon Instruments) and Origin. The temperature in the room was approximately 21° C.
For gap-free experiments, symmetrical (same solution in pipette and bath) KCl solution (200 mM KCl, 30 mM HEPES, pH adjusted to 7.4 with KOH), NaCl solution (200 mM NaCl, 30 mM HEPES, pH adjusted to 7.4 with NaOH) or NMDG-Cl solution (200 mM NMDG, 30 mM HEPES, pH adjusted to 7.4 with HCl) were used for both the internal and external solutions. All the traces were recorded at 100 mV for 5 minutes.
FIGS. 12-14 show single channel activity elicited by 10 μM 6-O-10 in the presence of symmetrical KCl, NaCl and NMDG-Cl solutions, respectively. FIGS. 15-17 show single channel activity elicited by 10 μM 6-A-10 in the presence of symmetrical KCl, NaCl and NMDG-Cl solutions, respectively. Histograms for a total recording time of 900 s are included below every record.
Ion channel activity was measured in the presence of symmetrical 200 mM KCl, NaCl or NMDG-Cl at a concentration of 10 μM for each compound. Three different records of 300 s each were analyzed for every condition shown in (FIGS. 12-17).
To estimate the relative permeabilities of various ions, the product of number of channels (N) and open probability (Po) and the conductance from the amplitude histograms must be taken into consideration (Table 1). Unlike measurements from single ion channels, the present analysis is not constrained to recordings from patches that contain single functional channels. Thus, the possibility that the supramolecular assembly of synthetic channels is dynamic, and that new channels form during recordings with different oligomerization states cannot be ruled out. The only parameter that can be controlled is the concentration of the compounds in solution. All measurements reported here were obtained at 10 μM solution concentration. […]
(In patch-clamp work, channel activity is measured electrically.)

A further experiment deals with Bacillus subtilis. Description: Toxicity (MIC) of MAcBCE and MAkBCE compounds on B. subtilis. The format is cell-based. The settings on record: B. subtilis 168 WT with pRB374, 12 h, up to 400 μM. The procedure:
XL1 blue strain Escherichia coli cells transformed with pET28a plasmid containing a kanamycin resistance gene, were grown at 37° C. in 2 mL of LB medium (Miller's LB broth, Research Products International) supplemented with 50 μg/mL of kanamycin, until the optical density (OD600) reached 0.6. The starting density of bacteria in the remainder of the experiments was a 1/100 dilution of this bacterial density, which was split into 4 mL cultures. A series of 400, 100, 10 and 5 mM stock solutions of each monoacylated benzo(crown-ether) (MAcBCE) and monoalkylated benzo(crown-ether) (MAkBCE) compounds in trifluoroethanol (TFE) were diluted by addition to the 4 mL cultures to reach final concentrations of 400, 200, 100, 50, 20, 15, 10, 5, 4, 3, 2 and 1 μM. The final TFE concentration was never higher than 0.1% v/v. Negative controls in the presence of TFE 0.1% v/v or in the absence of any treatment for each batch gave similar bacterial growth. The cultures were incubated at 37° C. with agitation for 12 h. Bacillus subtilis (168 WT) toxicity tests were carried out using an identical protocol, except they were transformed with the shuttle plasmid pRB374 in the presence of 5 μg/mL of kanamycin. […] Each compound was assayed a minimum of three times at each tested concentration.
The cytotoxicity of MABCE compounds was determined by measuring the MIC in liquid cultures of either the gram-negative bacteria Escherichia coli or the gram-positive bacteria Bacillus subtilis. […] As some curves overlap, portions of them are hidden. Values of MIC of 400 μM indicate that the value was either 400 μM, or it was higher and then was not determined. Each compound was assayed a minimum of three times at each different concentration. MICs for 5-A-4, 5-A-11, 6-A-11 and 6-O-11 could not be determined because the compounds were not soluble in TFE. While E. coli was not susceptible to any of the tested compounds at concentrations as high as 400 μM (data not shown), B. subtilis was susceptible to MABCE compounds bearing 15-crown-5 and 18-crown-6 scaffolds, but not to compounds containing a 12-crown-4 scaffold, as shown in FIG. 1.

Each structure is given as a SMILES string.

Take `CCCCCCCCCCc1ccc2c(c1)OCCOCCOCCOCCOCCO2` [Compound 6-A-10, 18-decyl-2,3,5,6,8,9,11,12,14,15-decahydrobenzo[b][1,4,7,10,13,16]hexaoxacyclooctadecine]: in experiment [1], the “efficiency of K+ transport compared to 6-O-10” value was “an order of magnitude less efficient” and the “single channel conductance with different ions” value is listed as “very similar with the different ions”. For the same compound, in experiment [1] (symmetrical 200 mM KCl), the “single channel activity with different ions” value is listed as “does not vary significantly”, the NPO stood at 0.18 ± 0.02 and the Translocation rate was 3.2 ± 0.3 10^6/sec. Further, in experiment [1] (symmetrical 200 mM NMDG-Cl), the NPO was 0.19 ± 0.12 and the Translocation rate is 5.0 ± 1.9 10^6/sec. In experiment [1] (symmetrical 200 mM NaCl), the NPO is listed as 0.16 ± 0.02 and the Translocation rate is listed as 4.5 ± 0.7 10^6/sec. Moreover, in the experiment with Bacillus subtilis, the “toxicity / susceptibility of B. subtilis (MIC, FIG. 1)” value was “most toxic”.

Regarding `CCCCCCCCCC(=O)c1ccc2c(c1)OCCOCCOCCOCCOCCO2` [Compound 6-O-10, 1-(2,3,5,6,8,9,11,12,14,15-decahydrobenzo[b][1,4,7,10,13,16]hexaoxacyclooctadecin-18-yl)decan-1-one], in experiment [1], the “single channel conductance with different ions” value was “only half that observed in the presence of K^+”. For the same compound, in experiment [1] (from translocation rates), the “efficiency of K+ permeation relative to NMDG+” value is 7 fold and the “efficiency of K+ permeation relative to Na+” value is 3.5 fold. In experiment [1] (symmetrical 200 mM KCl), the “single channel activity with different ions” value was “highest in the presence of K^+ and Na^+ as compared to NMDG^+”; the NPO was determined as 0.58 ± 0.16; the Translocation rate was 43.4 ± 5.8 10^6/sec. Besides, in experiment [1] (symmetrical 200 mM NMDG-Cl), the NPO was found to be 0.25 ± 0.13 and the Translocation rate is 7.1 ± 3.4 10^6/sec. Besides, in experiment [1] (symmetrical 200 mM NaCl), the NPO amounted to 0.56 ± 0.10 and the Translocation rate is on record as 11.3 ± 1.1 10^6/sec. The “toxicity / susceptibility of B. subtilis (MIC, FIG. 1)” value in the experiment on Bacillus subtilis was “most toxic”.
